Data: US9243278B2, “Mechanotransduction by the synergistic action of heterotypic cell interactions” (Brown University, priority 2011, dated 2016)
“Also recorded” adds a separate entry of the source.

Assays:
[1] = test system: 1:1 (NHF:H35) microtissues; conditions: cultured four hours, then overnight at 37° C. in 5 mM EDTA in PBS
Procedure: To determine if extracellular calcium disintegrated the microtissues, 1:1 (NHF: H35) microtissues were cultured for 4 hours. Culture media was removed, and microtissues were washed with PBS, and then incubated overnight at 37° C. in 5 mM EDTA in PBS. Control samples were kept in regular culture media or PBS.
To examine if enhanced power was transduced through cell-cell interactions 1:1 (NHF:H35) were cultured for four hours and then incubated in EDTA to destabilize the calcium dependent cell-cell adhesions. Control samples were kept in regular culture media or PBS.

[2] = test system: normal human fibroblasts (NHF); assay: toroid-on-cone cell power assay, homotypic NHF toroids; format: cell-based
Procedure: (§1) Toroid molds suitable for side view microcopy were designed as previously described (9). Toroid molds were designed using the computer aided design (CAD) software Solid Works (Solid Works Corporation, Concord, Mass., USA). The mold was designed with 12 features to create wells. Each feature is a rounded edged (350 μm in diameter) cylinder (1.1 mm) with a cone indent in the center. The slope of the central cone was 65° and it is 650 μm in diameter. CAD files were used to produce thermowax molds with a rapid prototyping machine (3D Systems Corporation, Valencia, Calif.).
(§2) Wax molds were used to cast 13% polyacrylamide gels. Gels were removed from wax molds and transferred to six well culture plates. Each of the resulting wells is a circular trough confined by the hydrogel wall at the outer edge of the trough and by a conical peg on the inner edge of the trough. The gels were rinsed with fresh culture medium and then equilibrated overnight at 37° C. in 4 ml of DMEM supplemented with 1% penicillin/streptomycin (pen/strep). After equilibration, the medium was removed, and the gels were rinsed with fresh medium.
NHFs (passage 4-10), derived from neonatal foreskins, and H35s (passage 5-11) were grown in T-175 flasks in DMEM with 10% FBS and 1% pen/strep at 37° C. and 10% CO2. Cells were removed from flasks using a standard trypsin process. Briefly, cells were exposed to 0.05% trypsin for 10 minutes, quenched with serum containing medium, spun down at 800 rpm for 6 minutes, resuspended in a known volume of medium, and counted using a hemocytometer. Cell solution (70 μl) was added to each hydrogel. After 30 minutes, 4 ml of fresh medium was added to each of the wells. After seeding, images of the samples were taken every 2 hours for about 8 hours. Pure NHF microtissues were seeded with about 10,500, about 21,000, about 25,000 or about 35,000 cells/well. Heterotypic microtissues were seeded at ratios of about 1:1, about 2:3, about 1:4; about 1:6, about 1:10, about 1:16, and about 1:20 (NHF:H35). The seeding per well for heterotypic samples was kept constant at about 21,000 cells/well. For TGF-β1 experiments, NHFs and H35s were incubated for 48 hours in DMEM with 10% FBS, 1% penn/strep and 5 ng/ml human recombinant TGF-β1 (Invitrogen, Carlsbad, Calif., USA), passed according to standard protocol, and seeded at about 21,000 cells/well. NHFs^TGF-β1 coseeded with H35s were seeded in DMEM with 10% FBS, 1% penn/strep without additional TGF-β1. […]
(§3) Convential view fluorescent and phase images were captured using Carl Zeiss Axio Observer Z1 with an AxioCam Mrm camera (Carl Zeiss MicroImaging, Thornwood, N.Y., USA). To capture side view images, a Mitutoyo FS-110 microscope was modified to lie on its back and a translational stage was added to hold samples. Samples were imaged in bright field through the eyepiece of the microscope. ImageJ Software (NIH Rasband, W.S. USA) was used to measure the height of the toroid, the major radius, and the minor radius of the toroid.
(§4) The range of power exerted by increasing numbers of NHFs (>3 fold) in a homotypic environment by seeding the cells into non-adhesive hydrogels with toroid recesses, each with a central cone (65° slope) was measured. Cells settled and formed cell-cell adhesions that drove the toroid shaped microtissue up the cone. The power necessary to move the NHF toroid up the cone as P=ΔW/Δt was calculated, where ΔW is work performed against gravity to move a toroid of a known mass to a given height, and Δt is the time over which the work is performed (9). […] Toroid power increased linearly as cell number increased, but power per NHF (cell power) was independent of cell number, with a peak cell power of 0.22±0.02 fJ/hr (2 hrs) and an average cell power (over all time points) of 0.16±0.03 fJ/hr.

[3] = test system: heterotypic toroids of NHFs and H35s; assay: toroid-on-cone cell power assay, heterotypic NHF:H35 toroids; format: cell-based, human, rat
Procedure: as §1, §2
(§5) NHFs (passage 4-10), derived from neonatal foreskins, and H35s (passage 5-11) were grown in T-175 flasks in DMEM with 10% FBS and 1% pen/strep at 37° C. and 10% CO2. Cells were removed from flasks using a standard trypsin process. Briefly, cells were exposed to 0.05% trypsin for 10 minutes, quenched with serum containing medium, spun down at 800 rpm for 6 minutes, resuspended in a known volume of medium, and counted using a hemocytometer. Cell solution (70 μl) was added to each hydrogel. After 30 minutes, 4 ml of fresh medium was added to each of the wells. After seeding, images of the samples were taken every 2 hours for about 8 hours. Pure NHF microtissues were seeded with about 10,500, about 21,000, about 25,000 or about 35,000 cells/well. Heterotypic microtissues were seeded at ratios of about 1:1, about 2:3, about 1:4; about 1:6, about 1:10, about 1:16, and about 1:20 (NHF:H35). The seeding per well for heterotypic samples was kept constant at about 21,000 cells/well. For TGF-β1 experiments, NHFs and H35s were incubated for 48 hours in DMEM with 10% FBS, 1% penn/strep and 5 ng/ml human recombinant TGF-β1 (Invitrogen, Carlsbad, Calif., USA), passed according to standard protocol, and seeded at about 21,000 cells/well. NHFs^TGF-β1 coseeded with H35s were seeded in DMEM with 10% FBS, 1% penn/strep without additional TGF-β1.
as §3, §4
The data shown in Table 1 show heterotypic toroids have enhanced power. […]

NHFs and H35s = assay: self-sorting of fluorescently labeled NHFs and H35s in microtissues; format: cell-based, human, rat
Procedure: For sorting experiments, NHFs and H35s were incubated with 2.5 μM CellTracker™ Red CMPTX and CellTracker™ Green CMFDA™ (Invitrogen, Carlsbad, Calif., USA), respectively, in serum free media for 30 minutes. After incubation, the dye was aspirated and the cells equilibrated in serum media for 1 hour prior to passing. For NHF^TGF-β1:H35 sorting experiments NHFs were incubated for 48 hours in DMEM with 10% FBS, 1% penn/strep and 5 ng/ml TGF-β1. After incubation the NHF^TGF-β1 and H35s were fluorescently labeled and passed as previously described.
as §3, with “ImageJ Software (NIH Rasband, W.S. USA) was used to measure the height of the toroid, the major radius, and the minor radius of the toroid.” left out
Using self sorting to identify drugs, TGF-β1 is a growth factor linked to fibrosis and well known for its ability to increase cell mediated contraction and synthesis of extracellular matrix proteins such as collagen. […] Also, as self-sorting proceeds the quantity of heterotypic interface decreases and the homotypic interface increases as cells partition. […]

[4] = test system: rat hepatocyte cell line (H35); assay: toroid-on-cone cell power assay, homotypic H35 toroids; format: cell-based
Procedure: as §1, §2, §5
To investigate the effect of paracrine factors, media from homotypic toroids containing about 10,500 H35s and from homotypic toroids containing about 10,500 NHFs was collected. The conditioned media was seeded about 10,500 NHFs with the media collected from the H35s and also seeded about 10,500 H35s with the media collected from the NHFs. Power was analyzed at four hours since this is the time enhanced power for heterotypic toroids which contained about 10,500 H35s and about 10,500 NHFs (1:1 samples).
Convential view fluorescent and phase images were captured using Carl Zeiss Axio Observer Z1 with an AxioCam Mrm camera (Carl Zeiss MicroImaging, Thornwood, N.Y., USA). To capture side view images, a Mitutoyo FS-110 microscope was modified to lie on its back and a translational stage was added to hold samples. […]
The range of power exerted by increasing numbers of NHFs (>3 fold) in a homotypic environment by seeding the cells into non-adhesive hydrogels with toroid recesses, each with a central cone (65° slope) was measured. […]

[5] = homotypic toroid 100% NHF^TGF-β
[6] = H35^TGF-β1 homotypic toroid, 24 hours

## O=C(O)CN(CCN(CC(=O)O)CC(=O)O)CC(=O)O [EDTA]
[1]
  microtissue integrity: disintegrated into monodispersed cells

## transforming growth factor-β1 [TGF-β1]
[2]; 2 hours, NHFs treated 48 hours in 5 ng/ml TGF-β1
  height of the NHF^TGF-β1 toroid relative to untreated NHFs: twice as far; also recorded: increased two fold
[2]; NHF^TGF-β1
  average cell power: 0.16 ± 0.21 fJ/h
[2]; NHF^TGF-β1, 2 hrs
  peak cell power: 0.47 fJ/h
[2]; NHF^TGF-β1 homotypic toroid, two hours
  Toroid Power: 9.82 ± 1.32 pJ/h
[2]; TGF-β treatment alone
  increase in NHF cell power in the homotypic environment: about 1.9 fold
[2]; homotypic NHF toroids treated with TGF-β1
  change in NHF cell power relative to untreated controls (in words): doubling in cell power; also recorded: increased only two fold; also recorded: doubled; also recorded: doubles cell power
[2]; [5]
  Enhancement in NHF Cell Power: 0.23 fJ/hr/NHF
  Toroid Power: 9.80 pJ/h
[2]; homotypic toroid 100% NHF^TGF-β versus control
  Enhancement in Toroid Power: 4.7 pJ/h
[2]; homotypic toroid 100% NHF^TGF-β, effects of TGF-β alone
  Fold Increase in NHF Cell Power: 1.9x
[3]; 1:1 (NHF^TGF-β:H35)
  H35 has Enhanced Power: 0.11 fJ/hr per H35
  NHF has Enhanced Power: 0.58 fJ/hr per NHF
  Relative Increase in NHF Cell Power: 2.4x
[3]; 1:1 (NHF^TGF-β:H35), at time of peak power, NHFs pretreated 48 hours with 5 ng/ml TGF-β1
  Measured Toroid Power: 6.05 pJ/h
[3]; 1:1 (NHF^TGF-β:H35), measured minus projected
  Enhanced Toroid Power: 1.16 pJ/h
[3]; 1:1 (NHF^TGF-β:H35), power per TGF-β treated NHF x number of NHFs
  Projected Toroid Power: 4.90 pJ/h
[3]; 1:1 NHF^TGF-β1 mixed with untreated H35s
  toroid height relative to respective control: 1.4 times
[3]; 1:10 (NHF^TGF-β:H35)
  Enhanced Toroid Power: 4.41 pJ/h
  H35 has Enhanced Power: 0.23 fJ/hr per H35
  NHF has Enhanced Power: 5.30 fJ/hr per NHF
  Projected Toroid Power: 0.89 pJ/h
  Relative Increase in NHF Cell Power: 22.1x
[3]; 1:10 (NHF^TGF-β:H35), peak power, combination of 6 and 8 hours
  Measured Toroid Power: 5.30 pJ/h
[3]; 1:10 NHF^TGF-β1 mixed with untreated H35s
  toroid height relative to respective control: 4.4 times
[3]; 1:20 (NHF^TGF-β:H35)
  Enhanced Toroid Power: 3.63 pJ/h
  H35 has Enhanced Power: 0.18 fJ/hr per H35
  NHF has Enhanced Power: 4.13 fJ/hr per NHF
  Projected Toroid Power: 0.47 pJ/h
  Relative Increase in NHF Cell Power: 17.2x
[3]; 1:20 (NHF^TGF-β:H35), at time of peak power
  Measured Toroid Power: 4.10 pJ/h
[3]; 1:20 NHF^TGF-β1 mixed with untreated H35s
  toroid height relative to respective control: 6.3 times
[3]; 5%:95% (NHF^TGF-β:H35)
  Enhancement in NHF Cell Power: 4.13 fJ/hr/NHF
  Enhancement in Toroid Power: 3.63 pJ/h
  Fold Increase in NHF Cell Power: 17.2x
  Toroid Power: 4.10 pJ/h
[3]; 10%:90% (NHF^TGF-β:H35)
  Enhancement in NHF Cell Power: 5.30 fJ/hr/NHF
  Enhancement in Toroid Power: 4.41 pJ/h
  Toroid Power: 5.30 pJ/h
[3]; 10%:90% (NHF^TGF-β:H35), effects of TGF-β & hetero environment
  Fold Increase in NHF Cell Power: 22.1x
[3]; 50%:50% (NHF^TGF-β:H35)
  Enhancement in NHF Cell Power: 0.58 fJ/hr/NHF
  Enhancement in Toroid Power: 1.16 pJ/h
  Fold Increase in NHF Cell Power: 2.4x
  Toroid Power: 6.05 pJ/h
[3]; NHF^TGF-β1, about 1:10 mix, between four and eight hours
  total cell power: 5.3 ± 1.32 fJ/h
[3]; NHF^TGF-β1, about 1:20 mix
  peak cell power: 4.13 ± 1.22 fJ/h
[3]; TGF-β1 treated NHFs with untreated H35s, enhanced power distributed to NHFs
  increase in cell power, heterotypic environment and TGF-β1: 22 ×
[3]; compared to untreated NHFs in a homotypic toroid
  increase in cell power, TGF-β1 treatment in conjunction with the heterotypic environment: greater than 22 times
[3]; compared to untreated NHFs in homotypic toroid, 10% NHFs: 90% H35s
  increase in NHF cell power, TGF-β1 treatment combined with heterotypic environment: about 22.1 fold
[3]; versus NHF^TGF-β1 in homotypic environment
  increase of NHF^TGF-β1 cell power in the heterotypic environment: greater than 11 times
NHFs and H35s; NHF^TGF-β1:H35 toroids (1:10), up to 24 hours
  self-sorting of NHFs and H35s in heterotypic toroids: prevented sorting; also recorded: reduced; also recorded: sorting was eliminated
NHFs and H35s; mixes (1:1) of NHFs and H35s treated with TGF-β1
  self-sorting of NHFs and H35s in spheroids: inhibited self-sorting
[4]; [6]
  Toroid Power: 0.45 ± 0.08 pJ/h
  cell power: 0.022 ± 0.004 fJ/h
[4]; homotypic H35 toroids treated with TGF-β1
  change in H35 power compared to untreated controls: doubled
[4]; homotypic toroid 100% H35^TGF-β
  Toroid Power: 0.45 pJ/h
[4]; homotypic toroid 100% H35^TGF-β versus control
  Enhancement in Toroid Power: 0.19 pJ/h
